Values of other authors as cited in US20240216406A1, “METHODS AND COMPOSITIONS FOR SUPPORTING HUMAN HEALTH DURING SPACE TRAVEL” (Intrinsic Medicine, Inc., priority 2021, published 2024).
Read-outs that look alike come from different tables or passages of the source.

Tests used:
local gut inflammation = conditions: models of necrotizing enterocolitis and other inflammatory bowel diseases
E. Coli = conditions: in the presence of the HMO
[1] = tested on: murine and human derived macrophages; conditions: in vitro
[2] = tested on: mouse models of rheumatoid arthritis; conditions: administered orally; mouse rheumatoid arthritis models with LPS challenge
p65 = conditions: murine rheumatoid arthritis model
[3] = tested on: PDL1, COX2, CCL2 (MCP1), CCL5

Molecule: CC1O[C@@H](OC2[C@H](O[C@@H]3C(CO)OC(O)C(O)C3O)OC(CO)[C@H](O)[C@@H]2O)C(O)[C@@H](O)[C@@H]1O (some centres unmarked) [2′FL, 2′-fucosyllactose]
- local gut inflammation (local gut inflammation): reduction of local gut inflammation
- gut epithelial barrier function (gut epithelial barrier): positive effects on gut epithelial barrier function
- TNFα and IL-8 (TNFα and IL-8): reduction in TNFα and IL-8
- E. Coli adhesion to Caco-2 cells (E. Coli): reduction of E. Coli adhesion

Molecule: CC(=O)N[C@H]1C([C@H](O)[C@H](O)CO)O[C@@](OCC2O[C@@H](O[C@@H]3C(CO)O[C@@H](O)C(O)[C@H]3O)C(O)[C@@H](O)[C@H]2O)(C(=O)O)C[C@H]1O (some centres unmarked) [6′SL, 6′-sialyllactose]
- IL-1β, IL-2, IL-4, IL-6, IL-12, IFN γ or TNF-α [1]: reductions
- E. Coli adhesion to Caco-2 cells (E. Coli): reduction of E. Coli adhesion

Molecule: sialyllactose
- clinical assessments of disease [2]: benefit in clinical assessments of disease

Molecule: CC(=O)N[C@H]1C([C@H](O)[C@H](O)CO)O[C@@](O[C@@H]2C(O)[C@H](O[C@@H]3C(CO)O[C@@H](O)C(O)[C@H]3O)OC(CO)[C@@H]2O)(C(=O)O)C[C@H]1O (some centres unmarked) [3′SL, 3′-sialyllactose]
- phosphorylation of p65 (NF-kB signaling pathway) (p65): inhibited phosphorylation of p65
- IL-1β, IL-2, IL-4, IL-6, IL-12, IFN γ or TNF-α [1]: reductions
- IL-1β, IL-2, IL-4, IL-6, IL-12, IFN γ or TNF-α ([1]; listed as 3′-SL): more significant reductions
- PDL1, COX2 and select chemokines such as CCL2 (MCP1) and CCL5 [3]: reduce other key target proteins
